According to patent US8987312B2, “Alpha-keto heterocycles as FAAH inhibitors” (The Scripps Research Institute, priority 2008, dated 2015):
Like-named read-outs stand apart in the source and are kept apart here.

Tests used:
Assay type in all cases: biochemical
FAAH = target: T1, FAAH (Mus musculus, UniProt O08914); assay: Activity based protein profiling (proteome-wide selectivity screening, FP-Rh), FAAH; settings: Table 4
T1 construct: with FP-Rh in brain and heart membrane proteome; from tissue; host or cells: brain and heart membrane proteome
T1 sequence (O08914 1-579): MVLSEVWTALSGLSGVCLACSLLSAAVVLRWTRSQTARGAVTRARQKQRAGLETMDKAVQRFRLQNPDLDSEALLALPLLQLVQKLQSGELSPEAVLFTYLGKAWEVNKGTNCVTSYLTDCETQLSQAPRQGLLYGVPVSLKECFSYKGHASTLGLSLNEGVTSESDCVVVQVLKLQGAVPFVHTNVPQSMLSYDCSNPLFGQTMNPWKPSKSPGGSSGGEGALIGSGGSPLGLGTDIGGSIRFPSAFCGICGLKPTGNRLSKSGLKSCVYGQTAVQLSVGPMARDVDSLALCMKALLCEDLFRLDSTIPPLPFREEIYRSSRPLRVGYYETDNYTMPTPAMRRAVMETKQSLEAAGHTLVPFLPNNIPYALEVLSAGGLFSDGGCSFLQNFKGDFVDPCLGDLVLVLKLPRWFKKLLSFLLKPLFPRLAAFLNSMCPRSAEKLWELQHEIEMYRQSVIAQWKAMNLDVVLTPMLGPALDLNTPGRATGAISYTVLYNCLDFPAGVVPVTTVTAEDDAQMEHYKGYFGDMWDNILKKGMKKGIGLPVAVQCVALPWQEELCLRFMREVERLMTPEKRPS
Description: (§1) Enzyme targets such as FAAH, KIAA1363, and TGH are labeled at the left margin.

KIAA1363 = target: T2, KIAA1363 (Mus musculus, UniProt Q8BLF1); assay: Activity based protein profiling (proteome-wide selectivity screening, FP-Rh), KIAA1363; settings: Table 4; for IC50: activity based protein profiling; for KIAA1363 selectivity (value in parentheses): ratio KIAA1363 IC50 / FAAH IC50 (fold selectivity for FAAH)
T2 construct: with FP-Rh in brain and heart membrane proteome; from tissue; host or cells: brain and heart membrane proteome
T2 sequence (Q8BLF1 1-408): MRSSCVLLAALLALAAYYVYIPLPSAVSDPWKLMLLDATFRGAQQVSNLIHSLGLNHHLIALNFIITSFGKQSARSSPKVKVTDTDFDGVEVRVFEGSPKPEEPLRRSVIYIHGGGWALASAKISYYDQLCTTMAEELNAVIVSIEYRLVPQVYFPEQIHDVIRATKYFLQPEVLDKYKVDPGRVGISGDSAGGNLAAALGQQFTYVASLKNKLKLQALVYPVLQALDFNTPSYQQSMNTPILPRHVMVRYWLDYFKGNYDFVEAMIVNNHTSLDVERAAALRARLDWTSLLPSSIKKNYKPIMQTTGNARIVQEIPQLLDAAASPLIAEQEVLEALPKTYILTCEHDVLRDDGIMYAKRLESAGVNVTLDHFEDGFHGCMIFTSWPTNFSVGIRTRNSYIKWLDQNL
Description: as §1

[1] = target: T3, purified recombinant rat FAAH (Rattus norvegicus, UniProt P97612); assay: FAAH inhibition enzyme assay (14C-oleamide hydrolysis, Dixon plot), rat enzyme
T3 construct: The truncated rat FAAH (rFAAH) was expressed in E. coli and purified as described; made in house; host or cells: Escherichia coli
T3 sequence (P97612 30-579 limits assumed): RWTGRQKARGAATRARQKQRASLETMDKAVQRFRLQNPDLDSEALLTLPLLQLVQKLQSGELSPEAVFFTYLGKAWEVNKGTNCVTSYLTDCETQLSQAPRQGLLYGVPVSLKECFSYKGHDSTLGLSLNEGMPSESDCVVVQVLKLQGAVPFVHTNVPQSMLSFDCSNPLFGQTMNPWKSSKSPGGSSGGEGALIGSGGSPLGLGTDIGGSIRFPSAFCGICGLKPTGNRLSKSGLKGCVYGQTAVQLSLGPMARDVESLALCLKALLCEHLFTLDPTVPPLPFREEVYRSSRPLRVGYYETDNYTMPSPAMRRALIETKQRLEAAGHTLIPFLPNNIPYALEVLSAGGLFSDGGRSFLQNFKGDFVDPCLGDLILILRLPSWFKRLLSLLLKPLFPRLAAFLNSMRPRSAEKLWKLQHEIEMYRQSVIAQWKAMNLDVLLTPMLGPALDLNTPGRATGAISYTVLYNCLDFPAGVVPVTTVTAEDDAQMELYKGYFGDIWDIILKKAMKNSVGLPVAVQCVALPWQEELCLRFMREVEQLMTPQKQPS
Description: The purified recombinant rFAAH was used in the inhibition assays unless otherwise indicated.
The ^14C-labeled oleamide (substrate) and oleic acid (product) were extracted with EtOAc and analyzed by TLC.

[2] = target: T4, triacylglycerol hydrolase (TGH) (Mus musculus, UniProt Q8VCT4); assay: Activity based protein profiling (proteome-wide selectivity screening, FP-Rh), TGH; settings: Table 4; for IC50: activity based protein profiling; for TGH selectivity (value in parentheses): ratio TGH IC50 / FAAH IC50 (fold selectivity for FAAH)
T4 construct: with FP-Rh in brain and heart membrane proteome; from tissue; host or cells: brain and heart membrane proteome
T4 sequence (Q8VCT4 19-565): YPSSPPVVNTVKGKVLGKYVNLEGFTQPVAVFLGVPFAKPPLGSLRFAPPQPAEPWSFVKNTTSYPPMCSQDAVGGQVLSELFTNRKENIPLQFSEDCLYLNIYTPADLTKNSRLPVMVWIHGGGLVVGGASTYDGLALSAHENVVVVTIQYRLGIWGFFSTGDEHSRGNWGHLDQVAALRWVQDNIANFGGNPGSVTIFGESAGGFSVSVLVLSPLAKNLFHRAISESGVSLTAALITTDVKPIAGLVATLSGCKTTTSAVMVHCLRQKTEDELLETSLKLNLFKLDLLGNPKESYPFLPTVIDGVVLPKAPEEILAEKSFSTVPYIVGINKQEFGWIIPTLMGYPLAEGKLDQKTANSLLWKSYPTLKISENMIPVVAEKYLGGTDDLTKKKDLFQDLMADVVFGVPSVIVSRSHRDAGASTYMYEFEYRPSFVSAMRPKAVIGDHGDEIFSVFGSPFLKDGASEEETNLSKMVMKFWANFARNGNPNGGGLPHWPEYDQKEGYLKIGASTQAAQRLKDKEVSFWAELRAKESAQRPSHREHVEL
Description: as §1

[3] = Table 2, rat FAAH, pH 9 assay conditions, read-out: Ki

## O=C(CCCCCCc1ccccc1)c1nncs1 [12a, 7-Phenyl-1-(1,3,4-thiadiazol-2-yl)-heptan-1-one]
FAAH
  IC50: 300 nM
KIAA1363
  IC50: > 100000 nM
  KIAA1363 selectivity (value in parentheses): > 330
[1]; [3]
  Ki: 1.4 nM
[1]; Table 4, read-out: FAAH Ki
  Ki: 1.4 nM
[2]
  IC50: 100 nM

## COC(=O)c1cccc(-c2nnc(C(=O)CCCCCCc3ccccc3)o2)n1 [8f, Methyl 6-(5-(7-Phenylheptanoyl)-1,3,4-oxadiazol-2-yl)-picolinate]
FAAH
  IC50: 8 nM
KIAA1363
  IC50: > 100000 nM
  KIAA1363 selectivity (value in parentheses): > 12500
[1]; [3]
  Ki: 3 nM
[1]; Table 4, read-out: FAAH Ki
  Ki: 3 nM
[2]
  IC50: 40 nM
  TGH selectivity (value in parentheses): 5

## COC(=O)c1cccc(-c2noc(C(=O)CCCCCCc3ccccc3)n2)n1 [9f, Methyl 6-(5-(7-Phenylheptanoyl)-1,2,4-oxadiazol-3-yl)-picolinate]
FAAH
  IC50: 3 nM
KIAA1363
  IC50: 40000 nM
  KIAA1363 selectivity (value in parentheses): 13000
[1]; [3]
  Ki: 3 nM
[1]; Table 4, read-out: FAAH Ki
  Ki: 3 nM
[2]
  IC50: 150 nM
  TGH selectivity (value in parentheses): 50

## COC(=O)c1cccc(-c2cnc(C(=O)CCCCCCc3ccccc3)s2)n1 [11f, Methyl 6-(2-(7-Phenylheptanoyl)-thiazol-5-yl)-picolinate]
FAAH
  IC50: > 100000 nM
KIAA1363
  IC50: > 100000 nM
[1]; [3]
  Ki: 500 nM
[1]; Table 4, read-out: FAAH Ki
  Ki: 500 nM
[2]
  IC50: 40000 nM
  TGH selectivity (value in parentheses): < 0.4

## O=C(CCCCCCc1ccccc1)c1cccnn1 [13a, 7-Phenyl-1-(pyridazin-3-yl)-heptan-1-one]
FAAH
  IC50: 3000 nM
KIAA1363
  IC50: > 100000 nM
  KIAA1363 selectivity (value in parentheses): > 30
[1]; [3]
  Ki: 140 nM
[1]; Table 4, read-out: FAAH Ki
  Ki: 140 nM
[2]
  IC50: 5000 nM
  TGH selectivity (value in parentheses): 1

## O=C(CCCCCCc1ccccc1)c1ncc(-c2ccco2)o1 [7c]
FAAH
  IC50: 80 nM
KIAA1363
  IC50: > 100000 nM
  KIAA1363 selectivity (value in parentheses): > 1250
[1]; [3]
  Ki: 12 nM
[1]; Table 4, read-out: FAAH Ki
  Ki: 12 nM
[2]
  IC50: 300 nM
  TGH selectivity (value in parentheses): 4

## COC(=O)c1cccc(-c2cnc(C(=O)CCCCCCc3ccccc3)o2)n1 [7f]
FAAH
  IC50: 170 nM
KIAA1363
  IC50: 40000 nM
[2]
  IC50: 1000 nM

## COC(=O)c1cccc(-c2ccc(C(=O)CCCCCCc3ccccc3)nn2)n1 [13f, Methyl 6-(6-(7-Phenylheptanoyl)-pyridazin-3-yl)-picolinate]
FAAH
  IC50: 10000 nM
KIAA1363
  IC50: > 100000 nM
  KIAA1363 selectivity (value in parentheses): > 10
[1]; [3]
  Ki: 110 nM
[1]; Table 4, read-out: FAAH Ki
  Ki: 110 nM
[2]
  IC50: > 100000 nM
  TGH selectivity (value in parentheses): > 10

## O=C(CCCCCCc1ccccc1)c1nccs1 [11a, 7-Phenyl-1-(thiazol-2-yl)-heptan-1-one]
FAAH
  IC50: > 100000 nM
KIAA1363
  IC50: > 100000 nM
[1]; [3]
  Ki: 800 nM
[1]; Table 4, read-out: FAAH Ki
  Ki: 800 nM

## COC(=O)c1nc(C(=O)CCCCCCc2ccccc2)no1 [10h, Methyl 3-(7-Phenylheptanoyl)-1,2,4-oxadiazole-5-carboxylate]
FAAH
  IC50: 10 nM
KIAA1363
  IC50: > 100000 nM
  KIAA1363 selectivity (value in parentheses): > 10000
[1]; Table 4, read-out: FAAH Ki
  Ki: 7 nM
[1]; rat FAAH, pH 9, read-out: Ki
  Ki: < 10 nM
[2]
  IC50: 200 nM
  TGH selectivity (value in parentheses): 20

## N#Cc1cccc(-c2ccc(C(=O)CCCCCCc3ccccc3)nn2)n1 [13h, 6-(6-(7-Phenylheptanoyl)-pyridazin-3-yl)-picolinonitrile]
FAAH
  IC50: 13000 nM
KIAA1363
  IC50: > 100000 nM
  KIAA1363 selectivity (value in parentheses): > 8
[1]; Table 4, read-out: FAAH Ki
  Ki: 390 nM
[2]
  IC50: 12000 nM
  TGH selectivity (value in parentheses): 1

## O=C(CCCCCCc1ccccc1)c1ncno1 [9a, 1-(1,2,4-Oxadiazol-5-yl)-7-phenylheptan-1-one]
FAAH
  IC50: 4 nM
KIAA1363
  IC50: 25000 nM
  KIAA1363 selectivity (value in parentheses): 6250
[1]; [3]
  Ki: 1 nM
[1]; Table 4, read-out: FAAH Ki
  Ki: 1 nM
[2]
  IC50: 0.7 nM
  TGH selectivity (value in parentheses): 0.18

## O=C(CCCCCCc1ccccc1)c1nnco1 [8a, 1-(1,3,4-Oxadiazol-2-yl)-7-phenylheptan-1-one]
FAAH
  IC50: 16 nM
KIAA1363
  IC50: > 100000 nM
  KIAA1363 selectivity (value in parentheses): > 6250
[1]; [3]
  Ki: 1 nM
[1]; Table 4, read-out: FAAH Ki
  Ki: 1 nM
[2]
  IC50: 25 nM
  TGH selectivity (value in parentheses): 1.5

## O=C(CCCCCCc1ccccc1)c1ncc(-c2cccs2)o1 [7d]
FAAH
  IC50: 800 nM
KIAA1363
  IC50: > 100000 nM
  KIAA1363 selectivity (value in parentheses): > 125
[1]; [3]
  Ki: 55 nM
[1]; Table 4, read-out: FAAH Ki
  Ki: 55 nM
[2]
  IC50: 200 nM
  TGH selectivity (value in parentheses): 0.25

## O=C(CCCCCCc1ccccc1)c1ncc(-c2ccccc2)o1 [7e]
FAAH
  IC50: 900 nM
KIAA1363
  IC50: > 100000 nM
[2]
  IC50: 700 nM

## O=C(CCCCCCc1ccccc1)c1ncon1 [10a, 1-(1,2,4-Oxadiazol-3-yl)-7-phenylheptan-1-one]
FAAH
  IC50: 500 nM
KIAA1363
  IC50: > 100000 nM
  KIAA1363 selectivity (value in parentheses): > 200
[1]; [3]
  Ki: 7 nM
[1]; Table 4, read-out: FAAH Ki
  Ki: 7 nM
[2]
  IC50: 10 nM
  TGH selectivity (value in parentheses): 0.02
